This is an account of results in patent US20200255492A1, “LEPTIN PEPTIDES AND THEIR USE FOR TREATING NEUROLOGICAL DISORDERS” (UNIVERSITY OF DUNDEE, priority 2017, published 2020).

The subject of assay [1] is mitochondria. The experiment in a line: MitoRed analysis of mitochondrial morphology after 6-OHDA (cellular Parkinson's Disease model). To be noted: 0.1 nM plus 100 μM 6-OHDA; 1 hour. It counts as cell-based. As to the method: Cultures were established on 3 separate occasions in quadruplicate and stained with MitoRED to identify mitochondria after 1 hour of treatment. Statistical significance relative to untreated control is denoted with ** where P<0.01 and *** where P<0.001. Representative images of 100 μM 6-OHDA-treated MitoRED stained cultures (C) and 100 μM 6-OHDA and leptin116-130 co-treated MitoRED stained cultures are shown. Scale bar represents […].
The human neuroblastoma cell line, SH-SY5Y (ECACC, UK) was maintained in Dulbecco's Modified Eagle Medium supplemented with glucose ([…]) and 10% (v/v) cosmic calf serum (Fisher Scientific, UK) at 37° C. in a humidified atmosphere of 5% CO2, 95% air and allowed to reach 70-80% confluence before seeding. Cells (passage 10-18) were plated at 2×10^5 cells on 13 mm borosilicate class coverslips or at 10 000 cells per well in 96 well tissue culture plates (Nunc, VWR, UK) prior to treatment. Reagents used were (from Sigma UK unless stated) 1 nM human leptin, leptin (116-121), leptin (117-122) and leptin (117-125); 0.0001-1 nm murine leptin fragments leptin (116-121), leptin (117-122) and leptin (116-130); 100 μM 6-hydroxydopamine; 10 μM CuCl2; […] Aβ1-42.
Cells were treated with pre-warmed cell culture medium containing 1 μM MitoRed ((9-[2-(4′-Methylcoumarin-7′-oxycarbonyl)phenyl]-3,6-bis(diethylamino)xanthylium chloride) and returned to the incubator for 45 minutes. Following fixation in NBF for 15 minutes, cells were washed 3 times in PBS. Coverslips were mounted in fluorescence mountant onto microscope slides and imaged on the Zeiss Axio MR2 microscope. The mean mitochondrial area and index of fragmentation (number of mitochondria: total area of mitochondrial material) were calculated using Fiji.

Assay [2] has as its system SH-SY5Y neural cells. The experiment in a line: Serum/glucose deprivation (in vitro model of stroke), crystal violet assay. Type of assay: cell-based, human. As to conditions: 96 hours; range of concentrations. As to the method: Cultures were established on 7 separate occasions in quadruplicate and starved of serum and glucose when they reached 70% confluence. Neural cell viability in response to a range of concentrations of leptin116-130 was determined 96 hours later using a crystal violet assay to measure cell number. Statistical significance relative to serum/glucose deprivation is denoted with ** where P<0.01 and *** where P<0.001. Photomicrographs of serum/glucose deprived cultures and of serum/glucose deprived cultures treated with 0.1 nM leptin116-130 (B) further highlight the enhanced cell number in the presence of leptin116-130. Scale bar represents 25 μm. […]
The concentration of lactate dehydrogenase (LDH) in the culture medium or the mitochondrial activity within cells was used to monitor the level of cell death, as previously (Oldreive and Doherty 2010). […] Plates were washed 5-10 times in dH2O and cells solubilised in 100 μl dimethyl sulfoxide (DMSO) before reading the absorbance on a Biohit BP100 plate reader. For all assays, data is expressed as percentage relative to control, untreated wells to normalize for differences in plating density between individual experiments.

For the sequence “SCSLPQTSGLQKPES (listed as Mus musculus) [leptin (116-130)]”, in assay [1], the “mitochondrial clumping (fragmentation index) with 6-OHDA” value is given as “prevents 6-OHDA-associated mitochondrial clumping” and the “mitochondrial swelling (mean mitochondrial area) with 6-OHDA” value was “prevents 6-OHDA-associated mitochondrial swelling”. In addition, the “survival following serum/glucose deprivation” value in assay [2] is reported as “significant neuroprotection”.
